Source: paper PMC6554712 (Biochemistry, 2018)

Legend:
FomD = FomD (Streptomyces fradiae, UniProt D2SNF7); experiment: […]-NMR hydrolysis assay; type: biochemical; details: 100 μM FomD, 6 mM racemic HPP-CMP
Fom3 = Fom3 (Streptomyces fradiae, UniProt D2SNF5); experiment: Mössbauer spectroscopy of […]-labelled enzyme; type: binding; details: 4.2 K, 53 mT; binds to the [4Fe-4S] cluster
[1] = substrate: Nc1ccn([C@@H]2O[C@H](COP(=O)(O)OP(=O)(O)CCO)[C@@H](O)[C@H]2O)c(=O)n1; experiment: steady-state kinetics, HPP-CMP formation by LC-MS/MS; type: biochemical, Streptomyces fradiae; details: 1 μM Fom3, SAM, Ti(III)citrate as reductant, anaerobic

FomD, sequence (D2SNF7 whole entry): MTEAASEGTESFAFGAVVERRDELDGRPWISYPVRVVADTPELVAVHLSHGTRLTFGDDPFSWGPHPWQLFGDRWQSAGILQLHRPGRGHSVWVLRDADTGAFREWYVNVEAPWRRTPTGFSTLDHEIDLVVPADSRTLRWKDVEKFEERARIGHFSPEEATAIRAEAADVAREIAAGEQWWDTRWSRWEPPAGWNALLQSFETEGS

With `CC(O)CP(=O)(O)OP(=O)(O)OC[C@H]1O[C@@H](n2ccc(N)nc2=O)[C@H](O)[C@@H]1O` (stereo partly shown) [HPP-CMP] the 31P-NMR hydrolysis assay (FomD) was “FomD from S. fradiae was overproduced and purified and then used in a reaction”.

For `C[S+](CC[C@H](N)C(=O)O)C[C@H]1O[C@@H](n2cnc3c(N)ncnc32)[C@H](O)[C@@H]1O` (stereo partly shown) [SAM], the “Mössbauer spectroscopy of 57Fe-labelled enzyme” value (Fom3) was “Upon incubating as-isolated Fom3 with SAM”.

B1: Fom3 (Streptomyces fradiae) (protein)
chain: MTIGSLGSTEFALHGKPAIRWGDLPQRVGKKASRRYQKVLLLNPSATLFRHDLPRCTYPLGLGYIAAVLEKYDYEVKILDVFAEGYYNAQPVDGDEQFLRYGLSDDDIVKVIKEFAPDVIGISSIFSNQADNVHHLLKLADLVAPEAVTSIGGAHARYFPKACLDDPNLDAVFLGEGEMTFLLWLEHLNGNVREDEVHGIAWRDRDGKIQIKPELPLISSMRPEGPEQGKSSPMLSMAGELDHIPFPAWHHYNMEKYFEIKAYQSPYTVGSRVGQLYTSRGCTAHCTFCTTTHFWGQKLRRRSVDNVVNEVLRLRDEYGIDEFHIQDDNITNDMDHARELFRAFKEVGLPWATPQGTALWRMDEELLDLMAESGAYQVTFAIESGVQRVLKDLIKKPLNLGRTSHLIKYARSLGMHVHGFFIIGMPPMFGNAGESIEEMQASYDYAEESGFSSASFFAASPIVGSELLRECIRQGFVDPEESLYRMTYKQGIINVPGLWDGEEIAELAAKFNRDFNARRDRDYTPQKQWNANQY
Molecule B1 has a Km [1] of 74 µM and a kcat [1] of ~0.013 s⁻¹.
